The record followed here is the supplement of paper PMC10307832.

Common to all, as to experiment: relative viability (nuclei count vs DMSO), 5 days (fraction); higher = more cells survive
Compound in the test “ALW-II-49-7 + Olaparib”: Cc1ccc(C(=O)Nc2cccc(C(F)(F)F)c2)cc1Nc1cncc(C(N)=O)c1 [ALW-II-49-7] + O=C(c1cc(Cc2n[nH]c(=O)c3ccccc23)ccc1F)N1CCN(C(=O)C2CC2)CC1 [Olaparib] (partner 8 µM)
In outline:
(§1)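 Five library-drug doses in √10 steps were combined with a fixed anchor-drug dose, or a single drug was given alone, by pin tool to lung cancer cell lines in 1536-well plates the day after seeding. Nuclei were stained and counted after 5 days. Relative viability is the nuclei count in treated wells over that in vehicle wells, taken as the median of duplicate plates.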

Compound in the test “ALW-II-49-7 + Foretinib”: Cc1ccc(C(=O)Nc2cccc(C(F)(F)F)c2)cc1Nc1cncc(C(N)=O)c1 [ALW-II-49-7] + COc1cc2c(Oc3ccc(NC(=O)C4(C(=O)Nc5ccc(F)cc5)CC4)cc3F)ccnc2cc1OCCCN1CCOCC1 [Foretinib] (partner 0.25 µM)
In outline: as §1

Compound in the test “XMD13-2 + Pemetrexed”: C1CC1C(=O)NC2=NNC3=C2C=CC(=C3)C4=CC(=CC=C4)C(=O)NC5CC5 [XMD13-2] + Nc1nc2[nH]cc(CCc3ccc(C(=O)N[C@@H](CCC(=O)O)C(=O)O)cc3)c2c(=O)[nH]1 [Pemetrexed] (partner 0.2 µM)
An outline of the steps:
as §1

Compound in the test “ALW-II-49-7 + Phenformin”: Cc1ccc(C(=O)Nc2cccc(C(F)(F)F)c2)cc1Nc1cncc(C(N)=O)c1 [ALW-II-49-7] + N=C(N)NC(=N)NCCc1ccccc1 [Phenformin] (partner 250 µM)
An outline of the steps: as §1

Take UMC-11: the relative viability in the test with ALW-II-49-7 + Olaparib (first compound 0.08 µM) was determined as 0.428; in the test with ALW-II-49-7 + Olaparib (first compound 0.253 µM) it was 0.428; in the test with ALW-II-49-7 + Olaparib (first compound 0.8 µM), 0.413; with ALW-II-49-7 + Olaparib (first compound 2.53 µM) it was 0.345; in the test with ALW-II-49-7 + Olaparib (first compound 8 µM), 0.342; with ALW-II-49-7 + Foretinib (first compound 0.08 µM) it was 1.11. Also, the relative viability came out at 1.06 with ALW-II-49-7 + Foretinib (first compound 0.253 µM); 0.991 with ALW-II-49-7 + Foretinib (first compound 0.8 µM); 1.07 in the test with ALW-II-49-7 + Foretinib (first compound 2.53 µM); 1.03 in the test with ALW-II-49-7 + Foretinib (first compound 8 µM); 0.914 with XMD13-2 + Pemetrexed (first compound 0.05 µM); 0.761 in the test with XMD13-2 + Pemetrexed (first compound 0.1581 µM). The relative viability with XMD13-2 + Pemetrexed (first compound 0.5 µM) was 0.791; with XMD13-2 + Pemetrexed (first compound 1.581 µM), 0.845; with XMD13-2 + Pemetrexed (first compound 5 µM), 0.772; with ALW-II-49-7 + Phenformin (first compound 0.08 µM), 0.347; with ALW-II-49-7 + Phenformin (first compound 0.253 µM) it was 0.372; with ALW-II-49-7 + Phenformin (first compound 0.8 µM) it was 0.352. For the same cell line, the figures for the relative viability in the test with ALW-II-49-7 + Phenformin (first compound 2.53 µM) and with ALW-II-49-7 + Phenformin (first compound 8 µM) were 0.304 and 0.268, respectively.
